# Measured values reported in US12358892B2, “Metalloenzyme inhibitors for treating cancers, Alzheimer's disease, hemochromatosis, and other disorders” (Miralogx LLC, priority 2020, dated 2025).
# System: 12 human primary cell-based systems
# Test: BioMAP Diversity PLUS panel, protein biomarker readouts and cytotoxicity
# Excerpt: This example describes testing the compound prepared in Example 1 in the BioMAP Diversity PLUS (Eurofins Discovery, Burlingame, California) panel of 12 human primary cell-based systems designed to model different aspects of the human body in an in vitro format. The 12 systems in the Diversity PLUS panel allow test agent characterization in an unbiased way across a broad set of systems modeling various human disease states. BioMAP systems are constructed with one or more primary cell types from healthy human donors, with stimuli (such as cytokines or growth factors) added to capture relevant signaling networks that naturally occur in human tissue or pathological conditions. Vascular biology is modeled in both a Th1 (3C system) and a Th2 (4H system) inflammatory environment, as well as in a Th1 inflammatory state specific to arterial smooth muscle cells (CASM3C system). Additional systems recapitulate aspects of the systemic immune response including monocyte-driven Th1 inflammation (LPS system) or T cell stimulation (SAg system), chronic Th1 inflammation driven by macrophage activation (lMphg system) and the T cell-dependent activation of B cells that occurs in germinal centers (BT system). The BE3C system (Th1) and the BF4T system (Th2) represent airway inflammation of the lung, while the MyoF system models myofibroblast-lung tissue remodeling. Lastly, skin biology is addressed in the KF3CT system modeling Th1 cutaneous inflammation and the HDF3CGF system modeling wound healing.
# The X-axis lists the quantitative protein-based biomarker readouts measured in each system. The Y-axis represents a log-transformed ratio of the biomarker readouts for the drug-treated sample (n=1) over vehicle controls (n≥6). The grey region around the Y-axis represents the 95% significance envelope generated from historical vehicle controls. Biomarker activities are annotated when two or more consecutive concentrations change in the same direction relative to vehicle controls, are outside of the significance envelope, and have at least one concentration with an effect size >20% (|log 10 ratio|>0.1). Biomarker key activities are described as modulated if these activities increase in some systems, but decrease in others. Cytotoxicity is indicated on the profile plot by a thin black arrow above the X-axis, and antiproliferative effects are indicated by a thick grey arrow. Cytotoxicity and antiproliferative arrows only require one concentration to meet the indicated threshold for profile annotation. As summarized in Table 2 below, the compound was active with 35 annotated readouts. Specifically, the compound impacted inflammation-related activities (decreased Eotaxin 3, VCAM-1, MCP-1, SAA, sTNFα, MIP-1α; increased IL-1α, IL-6; modulated IL-8), immunomodulatory activities (decreased CD40, sIL-1β, sIgG, M-CSF, sIL-17A, sIL-6, sIL-17F, sIL-2), tissue remodeling activities (decreased PAI-1, uPAR, αSMA, Keratin 8/18; increased collagen I, MMP-1), and hemostasis-related activities (increased TF).
# BioMAP® panels consist of human primary cell-based systems designed to model different aspects of the human body in an in vitro format. BioMAP® systems are constructed with one or more primary cell types from healthy human donors, with stimuli (such as cytokines or growth factors) added to capture relevant signaling networks that naturally occur in human tissue or pathological conditions. Vascular biology is modeled in both a Th1 (3C system) and a Th2 (4H system) inflammatory environment, as well as in a Th1 inflammatory state specific to arterial smooth muscle cells (CASM3C system). Additional systems recapitulate aspects of the systemic immune response including monocyte-driven Th1 inflammation (LPS system) or T cell stimulation (SAg system), chronic Th1 inflammation driven by macrophage activation (Mphg system) and the T cell-dependent activation of B cells that occurs in germinal centers (BT system). […]
# [1] = Example 3.2, hemostasis-related activities
# [2] = Example 3.2, immunomodulatory activities
# [3] = Example 3.2, inflammation-related activities
# [4] = Example 3.2, tissue remodeling activities
structure (smiles),measurement,setting,value
"C1=NC(c2cncc(C3CCC=N3)c2)CC1 (centres unmarked) [3,5-bis(3,4-dihydro-2H-pyrrol-2-yl)pyridine]",LDLR,Example 3.2,decrease
same,TF,[1],increased
same,TM,[1],decreased
same,CD38,[2],decreased
same,CD40,[2],decreased
same,HLA-DR,[2],decreased
same,sIL-1β,[2],decreased
same,sIL-2,[2],decreased
same,sIL-6,[2],decreased
same,sIL-17A,[2],decreased
same,sIL-17F,[2],decreased
same,sIgG,[2],decreased
same,Eotaxin 3,[3],decreased
same,IL-6,[3],decreased
same,IL-8,[3],modulated
same,MCP-1,[3],decreased
same,MIG,[3],decreased
same,P-selectin,[3],decreased
same,VCAM-1,[3],decreased
same,sPGE2,[3],increased
same,sTNFα,[3],modulated
same,Collagen IV,[4],decreased
same,MMP9,[4],decreased
same,MMP-1,[4],decreased
same,PAI-1,[4],decreased
same,TIMP-1,[4],decreased
same,alphaSMA,[4],decreased
same,uPAR,[4],decreased
same,cytotoxicity,at the concentrations tested in this study,not cytotoxic
